Reference: patent US9701681B2, “Fused ring heteroaryl compounds and their use as Trk inhibitors” (CMG Pharmaceutical Co., Ltd., priority 2014, dated 2017)

Experiments:
[1] = system: KM12-luc cells; test: Cell proliferation assay (KM12); conditions: 72 hours exposure, read-out: IC50 (nM) Cell-based assay (KM12)
Experimental: (§1) Doxorubicin was purchased from Sigma Aldrich (D1515). All compounds were diluted in DMSO (Sigma Aldrich, D2650). AlamarBlue® cell viability reagent was purchased from Thermo Scientific (88952). CellTiter 96® AQueous One Solution Cell proliferation assay was purchased from Promega. KM12-luc cells were obtained from JCRB (National Institute of Health Sciences, Tokyo, Japan). They were maintained in DMEM medium (GIB-11965-118) supplemented with 10% fetal bovine serum (Gibco, 16000-044) and MEM Non-Essential Amino Acids Solution (Thermo Scientific, 11140-050). TF-1 cells were obtained from ATCC. They were maintained in RPMI medium (GIB-A10491) supplemented with 10% fetal bovine serum (Gibco, 16000-044), GM-CSF (Thermo Scientific, 11140-050), and β-NGF (R&D systems). Trypsin/EDTA was purchased from Gibco (GIB-25300-054, 0.05%). 96-well plates were purchased from Corning Inc.
(§2) The proliferation assay was performed for Chemical Compounds 1-61 s in media supplemented with 10% FBS, using AlamarBlue® cell viability reagent or CellTiter 96® AQueous One Solution Cell proliferation assay kit. Cells were cultured in humidified 37° C. incubator with 5% CO2. To evaluate the antiproliferation activity of compounds, TF-1 cells were adjusted to GM-CSF free media (RPMI, 10% FBS, and 1% penicillin-streptomycin) for 16 hr and were seeded in 96-well plates at 30,000 cells/well with medium (RPMI, 10% FBS, 1% penicillin-streptomycin and 10 ng/ml human β-NGF). KM12-luc were seeded at 10,000 cells per well into 96-well plates. After overnight incubation, serial dilutions of compounds were added to triplicate wells, and cells were exposed for 72 hours. The final concentration of DMSO was adjusted to 0.5% in media. Quantitation of cell growth was assessed using two kinds of reagent. 20 ul of AlamarBlue® reagent in an amount equal to 10% of the culture volume was added to each well and were incubated in humidified 37° C. incubator with 5% CO2 for 2 hr. Otherwise, 20 ul of CellTiter 96® reagent was added to each well and were incubated in the same conditions as previously described. Data were plotted, and GI50 values were calculated using GraphPad software. Table 1 below includes the results of the assays.

[2] = molecular target: T1, TRK A, B & C kinase; test: TRK A, B & C kinase assay (ADP-Glo / HTRF KinEASE-TK); assay type: biochemical; conditions: ADP-Glo or HTRF KinEASE-TK kit, isoform not specified, read-out: IC50 (nM) Enzymatic assay
T1 construct: fused on or other part: Carna's Trk kinases are usually GST-tagged cytoplasmic domains
Experimental: ADP-Glo assay kit was purchased from Promega. poly (Glu, Tyr), Magnesium sulfate, Bovine serum albumin (BSA) and dimethylsulfoxide(DMSO) were purchased from Sigma-Aldrich. Tris-HCl buffer was purchased from BD Gentest. HTRF KinEASE-TK kit was purchased from cisbio. TRK A, B & C kinase was purchased from Carna bioscience.
Kinase assay was performed for Chemical Compounds 1-61 using two methods using luminescent ADP-Glo assay kit (Promega) and HTRF KinEASE-TK assay kit (cisbio). The luminescent ADP-Glo assay kit (Promega) measures ADP formed from a kinase reaction. ADP converted into ATP, which is then converted into light by Ultra-Glo luciferase. The HTRF KinEASE-TK assay kit (cisbio) measures tyrosine kinase activities using one substrate and a universal detection system.
ADP-Glo Assay Kit (Promega)
The protein kinase assay was performed for Chemical Compounds 1-61 at […] concentrations are 0.4 ng/ul of TrKA, 0.5 ng/ul of TrKB and 3 ng/ul of TrKC, respectively), 5 μL of 1 ug/ul stock solution of poly(glu, Tyr), 5 μL of compounds or assay buffer, 5 μL of ATP (125 μM stock solution).
The assay was started by incubating the reaction mixture in a 96-well plate at 30° C. for 1 hr. After the incubation, the assay was terminated by the addition of 25 […] Detection Reagent was added, and the 96-well plate was shaken and then incubated for additional 30 min at ambient temperature. The 96-well reaction plate was then read on an Enspire plate reader. The IC50 values were derived through a curve fitting using SigmaPlot.
HTRF KinEASE-TK Assay Kit (Cisbio)
The HTRF KinEASE-TK assay was performed for Chemical Compounds 1-61 in 384-well low volume microplate (Greiner). The HTRF KinEASE-TK assay format involves the two steps. The first step is kinase reaction step. This kinase reaction step was performed at RT (room temperature) in final volume of 10 ul according to the following assay reaction recipe: 10 ul of kinase mixture (Kinase (2 ul)+ATP (2 ul)+Substrate (2 ul)+Compound (4 ul)). Kinase final concentrations were 0.3 ng/ul of TRKA, 0.1 ng/ul of TRKB, 0.03 ng/ul of TRKC, respectively. ATP final concentrations were 14.7 uM (TRKA), 4.77 uM (TRKB), 25.6 uM (TRKC) respectively. TK-substrate final concentration was 0.3 ng/ul. The mixtures exposed to Dose response concentration (DRC) compound from 0 to 100 nM for 40 min. During the kinase reaction step, the kinase reaction was started by the addition of ATP. Kinase phosphorylates the substrate.
The second is detection step. 10 ul of detection reagents (5 ul Sa-XL 665 in EDTA+5 ul TK Antibody-Eu in EDTA) was added to kinase mixture. This step was performed at room temperature for 1 hr. The detection reagent detects phosphorylated substrates.
Finally 384-well reaction plate was then read on FlexStation 3 machine. The fluorescence was measured at 620 nm (Cryptate) and 665 nm (XL665). A ratio is calculated ([…]/620)×10^4 for each well. The IC50 value was derived through a curve fitting using GraphPad Prism. Table 1 below includes the results of the assays.

[3] = system: TF-1 cells; test: Cell proliferation assay (TF-1); conditions: 10 ng/ml human β-NGF, 72 hours exposure, read-out: IC50 (nM) Cell-based assay (TF-1)
Experimental: as §1, §2

Cc1nnc(-c2cnn3ccc(N4CCCC4c4cc(F)ccc4F)nc23)o1 (stereo not drawn) [Chemical Compound 1, 2-(5-(2-(2,5-difluorophenyl)pyrrolidin-1-yl)pyrazolo[1,5-a]pyrimidin-3-yl)-5-methyl-1,3,4-oxadiazole]
IC50 [1]: < 100 nM | IC50 [2]: < 10 nM | IC50 [3]: < 100 nM

Cc1nnc(-c2cnn3ccc(N4CCCC4c4cc(F)ccc4F)nc23)s1 (stereo not drawn) [Chemical Compound 2, 2-(5-(2-(2,5-difluorophenyl)pyrrolidin-1-yl)pyrazolo[1,5-a]pyrimidin-3-yl)-5-methyl-1,3,4-thiadiazole]
IC50 [1]: < 100 nM | IC50 [2]: < 10 nM | IC50 [3]: < 10 nM

CCc1nnc(-c2cnn3ccc(N4CCCC4c4cc(F)ccc4F)nc23)o1 (stereo not drawn) [Chemical Compound 3, 2-(5-(2-(2,5-difluorophenyl)pyrrolidin-1-yl)pyrazolo[1,5-a]pyrimidin-3-yl)-5-ethyl-1,3,4-oxadiazole]
IC50 [1]: < 100 nM | IC50 [2]: < 10 nM | IC50 [3]: < 10 nM

CCc1nnc(-c2cnn3ccc(N4CCCC4c4cc(F)ccc4F)nc23)s1 (stereo not drawn) [Chemical Compound 4, 2-(5-(2-(2,5-difluorophenyl)pyrrolidin-1-yl)pyrazolo[1,5-a]pyrimidin-3-yl)-5-ethyl-1,3,4-thiadiazole]
IC50 [1]: < 100 nM | IC50 [2]: < 10 nM | IC50 [3]: < 10 nM

CC(C)c1nnc(-c2cnn3ccc(N4CCCC4c4cc(F)ccc4F)nc23)o1 (stereo not drawn) [Chemical Compound 5, 2-(5-(2-(2,5-difluorophenyl)pyrrolidin-1-yl)pyrazolo[1,5-a]pyrimidin-3-yl)-5-isopropyl-1,3,4-oxadiazole]
IC50 [1]: < 10 nM | IC50 [2]: < 10 nM | IC50 [3]: < 10 nM

CC(C)c1nnc(-c2cnn3ccc(N4CCCC4c4cc(F)ccc4F)nc23)s1 (stereo not drawn) [Chemical Compound 6, 2-(5-(2-(2,5-difluorophenyl)pyrrolidin-1-yl)pyrazolo[1,5-a]pyrimidin-3-yl)-5-isopropyl-1,3,4-thiadiazole]
IC50 [1]: < 10 nM | IC50 [2]: < 10 nM | IC50 [3]: < 10 nM

Fc1ccc(F)c(C2CCCN2c2ccn3ncc(-c4nnc(C5CC5)o4)c3n2)c1 (stereo not drawn) [Chemical Compound 7, 2-cyclopropyl-5-(5-(2-(2,5-difluorophenyl)pyrrolidin-1-yl)pyrazolo[1,5-a]pyrimidin-3-yl)-1,3,4-oxadiazole]
IC50 [1]: < 100 nM | IC50 [2]: < 10 nM | IC50 [3]: < 10 nM

Fc1ccc(F)c(C2CCCN2c2ccn3ncc(-c4nnc(C5CC5)s4)c3n2)c1 (stereo not drawn) [Chemical Compound 8, 2-cyclopropyl-5-(5-(2-(2,5-difluorophenyl)pyrrolidin-1-yl)pyrazolo[1,5-a]pyrimidin-3-yl)-1,3,4-thiadiazole]
IC50 [1]: < 100 nM | IC50 [2]: < 10 nM | IC50 [3]: < 10 nM

CC(C)(C)c1nnc(-c2cnn3ccc(N4CCCC4c4cc(F)ccc4F)nc23)o1 (stereo not drawn) [Chemical Compound 9, 2-tert-butyl-5-(5-(2-(2,5-difluorophenyl)pyrrolidin-1-yl)pyrazolo[1,5-a]pyrimidin-3-yl)-1,3,4-oxadiazole]
IC50 [1]: < 10 nM | IC50 [2]: < 10 nM | IC50 [3]: < 10 nM

CC(C)(C)c1nnc(-c2cnn3ccc(N4CCCC4c4cc(F)ccc4F)nc23)s1 (stereo not drawn) [Chemical Compound 10, 2-tert-butyl-5-(5-(2-(2,5-difluorophenyl)pyrrolidin-1-yl)pyrazolo[1,5-a]pyrimidin-3-yl)-1,3,4-thiadiazole]
IC50 [1]: < 10 nM | IC50 [2]: < 10 nM | IC50 [3]: < 10 nM

Cc1nnc(-c2cnn3ccc(N4CCCC4c4cncc(F)c4)nc23)s1 (stereo not drawn) [Chemical Compound 11, 2-(5-(2-(5-fluoropyridin-3-yl)pyrrolidin-1-yl)pyrazolo[1,5-a]pyrimidin-3-yl)-5-methyl-1,3,4-thiadiazole]
IC50 [1]: < 100 nM | IC50 [2]: < 10 nM | IC50 [3]: < 100 nM

CCc1nnc(-c2cnn3ccc(N4CCCC4c4cncc(F)c4)nc23)s1 (stereo not drawn) [Chemical Compound 12, 2-ethyl-5-(5-(2-(5-fluoropyridin-3-yl)pyrrolidin-1-yl)pyrazolo[1,5-a]pyrimidin-3-yl)-1,3,4-thiadiazole]
IC50 [1]: < 100 nM | IC50 [2]: < 10 nM | IC50 [3]: < 100 nM

CC(C)c1nnc(-c2cnn3ccc(N4CCCC4c4cncc(F)c4)nc23)s1 (stereo not drawn) [Chemical Compound 13, 2-(5-(2-(5-fluoropyridin-3-yl)pyrrolidin-1-yl)pyrazolo[1,5-a]pyrimidin-3-yl)-5-isopropyl-1,3,4-thiadiazole]
IC50 [1]: < 100 nM | IC50 [2]: < 10 nM | IC50 [3]: < 100 nM

Fc1cncc(C2CCCN2c2ccn3ncc(-c4nnc(C5CC5)s4)c3n2)c1 (stereo not drawn) [Chemical Compound 14, 2-cyclopropyl-5-(5-(2-(5-fluoropyridin-3-yl)pyrrolidin-1-yl)pyrazolo[1,5-a]pyrimidin-3-yl)-1,3,4-thiadiazole]
IC50 [1]: < 100 nM | IC50 [2]: < 10 nM | IC50 [3]: < 100 nM

CC(C)(C)c1nnc(-c2cnn3ccc(N4CCCC4c4cncc(F)c4)nc23)s1 (stereo not drawn) [Chemical Compound 15, 2-tert-butyl-5-(5-(2-(5-fluoropyridin-3-yl)pyrrolidin-1-yl)pyrazolo[1,5-a]pyrimidin-3-yl)-1,3,4-thiadiazole]
IC50 [1]: < 100 nM | IC50 [2]: < 10 nM | IC50 [3]: < 100 nM

O=C(/C=C/c1cnn2ccc(N3CCC[C@@H]3c3cc(F)ccc3F)nc12)N1CC[C@H](O)C1 [Chemical Compound 60, (E)-3-(5-((R)-2-(2,5-difluorophenyl)pyrrolidin-1-yl)pyrazolo[1,5-a]pyrimidin-3-yl)-1-((S)-3-hydroxypyrrolidin-1-yl)prop-2-en-1-one]
IC50 [1]: < 100 nM | IC50 [2]: < 10 nM

(E)-3-(5-((R)-2-(2,5-difluorophenyl)pyrrolidin-1-yl)pyrazolo[1,5-a]pyrimidin-3-yl)-1-((R)-3-hydroxypyrrolidin-1-yl)prop-2-en-1-one [Chemical Compound 59]
IC50 [1]: < 100 nM | IC50 [2]: < 10 nM

(R,E)-3-(5-(2-(2,5-difluorophenyl)pyrrolidin-1-yl)pyrazolo[1,5-a]pyrimidin-3-yl)-1-(4-hydroxypiperidin-1-yl)prop-2-en-1-one [Chemical Compound 57]
IC50 [1]: < 100 nM | IC50 [2]: < 10 nM
